Reference: patent publication US6905699B2, “Insecticides” (Sumitomo Chemical Company, Limited, priority 2000, dated 2005)

Test system: Silverleaf Whitefly (Bemisia argentifolii)
Experiment: Insecticidal test against silverleaf whitefly on cabbage seedlings (spray)
Assay type: in vivo
Settings: spray on infested cabbage seedlings, total of adults and larvae, 9 days after treatment
Description: Insecticidal Test Against Silverleaf Whitefly (Bemisia argentifolii)
To each of an aqueous dilution in a designated concentration of an emulsifiable concentrate of Compound A (commercial name: Lano EC, manufactured by Sumitomo Chemical Co., Ltd.) and a flowable of Compound B (commercial name: Sanmite flowable, manufactured by Nissan Chemical Industries, Ltd.), and a mixture of the emulsifiable concentrate of Compound A in a designated concentration with the flowable of Compound B in a designated concentration, a spreading agent (Shin-Rino, manufactured by Nihon Nohyaku Co., Ltd.) was added to make the amount of the spreading agent to 1/3000 of volume to prepare a spray solution.
Cabbage seedlings planted in 3 ounces plastic cup were placed in a net cage containing many living silverleaf whiteflies for 24 hours, so that silverleaf whiteflies became parasitic on the cabbage seedlings. Each of the above-prepared test solutions was sprayed with a spray gun. The number of silverleaf whiteflies (i.e., the total number of adults and larvae) surviving on the cabbage seedlings was examined just before and after 9 days from the treatment.

Structure (SMILES) | Number of surviving insects after 9 days (12.5 ppm active ingredient) | Number of surviving insects after 9 days (50 ppm active ingredient) | Number of surviving insects after 9 days (100 ppm active ingredient)
CC(C)(C)c1ccc(CSc2cnn(C(C)(C)C)c(=O)c2Cl)cc1 [Compound B, 2-tert-butyl-5-(4-tert-butylbenzylthio)-4-chloropyridazin-3(2H)-one] | 155 | 10 | 13
CC(COc1ccc(Oc2ccccc2)cc1)Oc1ccccn1 (stereo not shown) [Compound A, 4-phenoxyphenyl 2-(2-pyridyloxy)propyl ether] | – | 30 | –
